Earlier results as cited in patent US10221122B2, “Enantiospecific process for the preparation of (R) and (S) enantiomers of sex pheromonoes of the long tailed mealy bug” (Council of Scientific & Industrial Research, priority 2015, dated 2019).
Like-named read-outs stand apart in the source and are kept apart here.

Tests used:
American cockroach = settings: J. Chem. Ecol. 1983, 9(3), 433-48
[1] = tested on: males of the American cockroach; settings: Agric. Biol. Chem. 1979, 43(9), 1967-1974
male mealybugs [2] = settings: attraction lasting three months; reported by Miller group
male mealybugs [3] = settings: field trials; J. Org. Chem. 2013, 78, 6281-6284

SMILES	sex pheromonal activity (American cockroach; at 0.05 mg)	attractiveness to male mealybugs (male mealybugs [3])	also measured
CCC(=O)OC1CC2CCC1(C)C2(C)C (single isomer, unassigned; (-)) [(−)-bornyl propionate]			sex pheromonal activity (American cockroach; at 0.5 mg dose): weak activity
CC(=O)OC1CC2CCC1(C)C2(C)C (single isomer, unassigned; (+)) [(+)-bornyl acetate]	showed the activity		excitation of males showing the typical sexual response [1]: excite males of the American cockroach
CC(=O)OCCC1(C)C=CCC1(C)C (racemic) [racemic form of the pheromone]			amount sufficient to attract male mealybugs (male mealybugs [2]): 25 µg
CCC(=O)OC1CC2CCC1(C)C2(C)C (stereo not shown) [Ic]	showed the activity		
CC(=O)OCC[C@]1(C)C=CCC1(C)C [(R)-(−)-enantiomer, 2-[(1R)-1,5,5-trimethylcyclopent-2-en-1-yl]ethyl acetate]		neither attractive nor inhibitory	
CC(=O)OCC[C@@]1(C)C=CCC1(C)C [(S)-(+)-enantiomer, 2-[(1S)-1,5,5-trimethylcyclopent-2-en-1-yl]ethyl acetate]		highly attractive	
